Literature values as cited in patent US20050065088A1, “Pharmaceutical compositions and methods comprising combinations of 2-alkylidene-19-nor-vitamin D derivatives and parathyroid hormone” (Pfizer Inc., priority 2003, published 2005).

Legend:
[1] = test system: intestinal calcium transport; conditions: chronic dosing 7 days, 130 or 260 pmol dose (1,25-(OH)2D3 only 260 pmol/day)
[2] = test system: serum calcium (bone calcium mobilization); conditions: for selectivity bone calcium mobilization versus intestinal calcium transport, in words / bone calcium mobilization, result in words: chronic dosing 7 days; for bone calcium mobilization, result in words: 130 and 260 pmol/day
[3] = test system: HL-60 cells; conditions: result in words

| Compound | intestinal calcium transport, result in words [1] | activity on bone calcium mobilization (serum calcium) relative to the native hormone ([2]; 130 pmol/day, 7 days, 'at least 10 and possible 100-1,000 times') | selectivity bone calcium mobilization versus intestinal calcium transport, in words [2] | bone calcium mobilization, result in words [2] | inducing differentiation of HL-60 cells to the monocyte [3] | bone calcium mobilization activity relative to 1,25-(OH)2D3 ([2]; chronic dosing, 7 days, 'likely to be') |
| --- | --- | --- | --- | --- | --- | --- |
| C=C1/C(=C\C=C2/CCC[C@]3(C)[C@@H]([C@H](C)CCCC(C)(C)O)CC[C@@H]23)C[C@@H](O)C[C@@H]1O [1,25-(OH)2D3, 1,25-dihydroxyvitamin D3, reference compound] | expected elevation |  |  |  |  |  |
| C=C1[C@H](O)CC(=C/C=C2\CCC[C@]3(C)[C@@H]([C@@H](C)CCCC(C)(C)O)CC[C@@H]23)C[C@H]1O [2-Methylene-19-Nor-20S-1,25-(OH)2D3, (20S)-1α,25-dihydroxy-2-methylene-19-nor-vitamin D3] | no significant change | at least 10 times | selective for the mobilization of calcium from bone | most potent compound tested | extremely potent |  |
| C=C1[C@H](O)CC(=C/C=C2\CCC[C@]3(C)[C@@H]([C@H](C)CCCC(C)(C)O)CC[C@@H]23)C[C@H]1O [2-Methylene-19-Nor-1,25-(OH)2D3, 1α,25-dihydroxy-2-methylene-19-nor-vitamin D3] | no intestinal calcium transport activity |  | selective for the mobilization of calcium from bone | extremely strong bone calcium mobilization | activity similar to 1,25-(OH)2D3 | 10-100 times |
